Data reported in PMC9691367, “The PROTAC selectively degrading Bcl-xL represents a novel Hedgehog pathway inhibitor with capacity of combating resistance to Smoothened inhibitors while sparing bone growth” (Theranostics, 2022).
pIC50: −log10 of the molar value. Where two headings read alike, the source gives them in different places.

What was measured:
Sufu/Gli1 interaction = experiment: Co-immunoprecipitation of Sufu with Gli1 in NIH-3T3 cells; format: cell-based; conditions: 1 µM
Experimental: Cells were lysed in immunoprecipitation lysis buffer (#87787, Thermo Fisher Scientific) supplemented with protease and phosphatase inhibitor cocktail. Cell lysates were incubated with the indicated antibodies at 4 °C overnight, followed by incubation with Protein A/G Plus-Agarose beads (Santa Cruz Biotechnology) at 4 °C for 4 h. Immunoprecipitates were collected by centrifugation and washed three times with washing buffer. The complex was separated from the beads and then boiled for 10 min. The immunoprecipitates and inputs were analyzed by SDS-PAGE and immunoblot using the antibodies as indicated.

platelets = experiment: Platelet toxicity assay in C57BL/6J mice; format: in vivo, mouse; conditions: 8 h and 24 h
Excerpt: Blood was collected at different time points via retro-orbital bleeding in anticoagulation tube. Platelets or different blood cells were enumerated using BM800 blood analyzer (Bowlinman Sunshine).

Bcl-xL = target: T1, Bcl-xL (Mus musculus, UniProt Q64373); experiment: Western blot of Bcl-xL degradation in NIH-3T3 cells; format: cell-based
T1 construct: endogenous in cells; host or cells: NIH-3T3
T1 sequence (Q64373 whole entry): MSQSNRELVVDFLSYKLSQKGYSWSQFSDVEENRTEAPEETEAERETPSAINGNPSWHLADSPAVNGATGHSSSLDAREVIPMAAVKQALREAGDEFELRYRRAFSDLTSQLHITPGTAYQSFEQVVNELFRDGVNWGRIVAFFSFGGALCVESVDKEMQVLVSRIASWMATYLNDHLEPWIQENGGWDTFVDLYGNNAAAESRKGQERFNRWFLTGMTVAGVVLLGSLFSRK
Experimental: (§1) Cells were lysed in cell lysis buffer (50 mM Tris pH 8.0, 150 mM NaCl, 10% glycerol, 1 mM EDTA, 50 mM NaF, and 0.1% NP-40) supplemented with protease and phosphatase inhibitors. Total protein extracts of tissues were generated in radioimmunoprecipitation (RIPA) assay lysis buffer containing complete protease and phosphatase inhibitor cocktail. Protein content was quantified using the Pierce BCA Protein Assay Kit (#23225, Thermo Fisher Scientific). The proteins were separated by SDS-PAGE, electrophoretically transferred to polyvinylidene difluoride (PVDF) blotting membranes (#LC2002, Thermo Fisher Scientific), and subjected to routine immunoblot analysis with primary antibodies as follows: anti-Bcl-2 (#15071), anti-Mcl-1 (#94296), anti-VHL (#68547), anti-CRBN (#71810), and anti-Sufu (#2522) were obtained from Cell Signaling Technology (Danvers, Massachusetts, USA); anti-Bcl-xL (#ab32370), anti-Gli1 (#ab134906), and anti-Smoothened (#ab236465) were obtained from Abcam (Cambridge, CB2 0AX, UK); anti-GAPDH (#60004-1-Ig) and anti-β-tubulin (#10094-1-AP) were purchased from Proteintech Group, Inc. (Rosemont, IL 60018, USA). The results were quantified by densitometry using ImageJ software (NIH).

[1] = test system: Hh pathway (Gli-luciferase) provoked by Smo WT / Smo mutants; experiment: Dual luciferase reporter assay, Hh activity induced by ectopic Smo WT or Smo mutants in light II cells; format: cell-based; conditions: for pIC50: 36 h
Excerpt: The TCF/LEF luciferase reporter plasmid, NF-κB luciferase reporter plasmid, and TK-Renilla luciferase plasmid were purchased from Promega (Madison, WI, USA). Smo plasmid was purchased from Origene (Rockville, MD, USA). The Smo mutant plasmids were generated from wild type Smo plasmid using QuickChange Site-Directed Mutagenesis kit from Agilent (Santa Clara, CA, USA) and confirmed by sequencing. Information on Smo mutants plasmids is provided in Supplementary data 2. The Gli1 plasmid and Gli2-HA plasmid were obtained from Addgene (Cambridge, MA, USA). Transient transfections were performed by Lipofectamine 2000 reagent from Invitrogen (Grand Island, NY, USA) according to the manufacturer's instructions.
Cells seeded in 96-well plates were treated with various treatments as indicated. The luciferase activity in the cell lysates was measured using Dual-Luciferase Reporter Assay System (Promega, Madison, WI, USA) according to the manufacturer's instructions in a luminometer (Molecular Devices, Sunnyvale, CA). The firefly luciferase values were normalized to Renilla values.

[2] = test system: IKZF1, IKZF3, SALL4, GSPT1; experiment: Western blot of CRBN neo-substrates in NIH-3T3 cells; format: cell-based; conditions: 24 h
Experimental: as §1, with “(NIH). […]” for “(NIH).”
hydrochloride; DMAP = 4-dimethylaminopyridine; TFA = trifluoroacetic acid; DMF = N,N-dimethylformamide. […]

Gli1 = experiment: Immunofluorescence staining of Gli1 in 293T cells transfected with Gli1; format: cell-based; conditions: 293T cells transfected with Gli1, 1 µM, 24 h
Experimental: Cells were fixed with 4% paraformaldehyde (PFA) for 15 min, permeabilized with 0.3% Triton X-100 in PBS for 10 min, and blocked with 1% BSA in PBS for 2 h. After that, the cells were further incubated with rabbit anti-Gli1 antibody (#101156-T10, SinoBiological) at 4 °C overnight. Then cells were stained with the Alexa Fluor®594-conjugated Goat Anti-rabbit IgG secondary antibody (red) for 1.5 h. Nuclei were counterstained with DAPI (blue). The immunofluorescent images of cells were captured under a fluorescence microscope (Leica).

## CC1(C)CCC(c2ccc(Cl)cc2)=C(CN2CCN(c3ccc(C(=O)NS(=O)(=O)c4ccc(NCCCN5CCN(CCCC#Cc6cccc7c6CN(C6CCC(=O)NC6=O)C7=O)CC5)c(S(=O)(=O)C(F)(F)F)c4)cc3)CC2)C1 (stereo not drawn) [SIAIS361034]
Sufu/Gli1 interaction
  interaction of Sufu with Gli1: increased the interaction of Sufu with Gli1
platelets; SIAIS361034 single i.p. 50 and 100 mg/kg, ABT-263 single p.o. 100 mg/kg
  number of platelets: no appreciable alterations
platelets; single i.p. 50 and 100 mg/kg
  other blood cells (neutrophils, red blood cells): no influence
Bcl-xL; 1 µM for 24 h followed by drug withdrawal
  duration of Bcl-xL degradation: around 48 h
Bcl-xL; 1 µM, western blot
  Bcl-xL degradation: significantly degraded Bcl-xL
Bcl-xL; NIH3T3, 24 h, western blot, read-out: maximum degradation (Dmax) of Bcl-xL
  Dmax: 88.1%
Bcl-xL; data not shown
  effect on Bcl-xL mRNA levels: almost no effect
[1]; Gli-luciferase
  IC50 shift between Smo wild-type and mutations: no significant IC50 shift
[1]; Smo WT, D473H, H231R, W281C, W535L, L412F, F460L, GDC-0449 10 μM (Figure S3B-D)
  Hh activity provoked by wild type Smo and Smo mutants: obviously inhibited
[1]; ectopic Smo D473H, read-out: IC50 value, Smo D473H
  pIC50: 6.73
[1]; ectopic Smo F460L, read-out: IC50 value, Smo F460L
  pIC50: 6.83
[1]; ectopic Smo H231R, read-out: IC50 value, Smo H231R
  pIC50: 6.93
[1]; ectopic Smo L412F, read-out: IC50 value, Smo L412F
  pIC50: 7.39
[1]; ectopic Smo W281C, read-out: IC50 value, Smo W281C
  pIC50: 7.03
[1]; ectopic Smo W535L, read-out: IC50 value, Smo W535L
  pIC50: 6.77
[1]; ectopic Smo WT, read-out: IC50 value, Smo WT
  pIC50: 6.73
[2]
  abundance of CRBN neo-substrates IKZF1, IKZF3, SALL4, GSPT1: did not affect abundance
Gli1
  translocation of Gli1 from cytoplasm into nucleus: suppressed translocation of Gli1 from cytoplasm into nucleus
